# In US12144786B2 (priority 2020, dated 2024):
# Ends that are not written are not given here.
# Columns and labels:
# chronic anorexia nervosa = experiment: Case study: ketogenic diet followed by IV ketamine infusions in a patient with chronic anorexia nervosa; type: in vivo, human
# [1] = 10 4-hour infusions of up to 20 mg/hour; cited from earlier work
# [2] = up to 4 doses of 0.1-0.5 mg/kg IV over 2 weeks, 8-month follow-up; cited from earlier work
# [3] = test system: patients with eating disorders; settings: 10-hour infusions of 20 mg/hour; cited from earlier work
# patients = settings: usually; rarely longer than 2 hours; cited from earlier work
# [4] = test system: patients treated for depression; settings: 6630 patients, six or more repeated parenteral infusions for depression; cited from earlier work
# healthy volunteers = settings: 80-minute infusion of 0.4 or 0.8 mg/kg, 3 days later; cited from earlier work
# [5] = in vivo; cited from earlier work
# [6] = in vivo; cited from earlier work; remark: listed apart in the source
# [7] = test system: animal models of brain injury and stroke; settings: cited from earlier work
# [8] = in vivo; cited from earlier work; remark: listed apart in the source
# [9] = test system: rodent models of depression; settings: cited from earlier work
# [10] = in vivo, cited from earlier work
compound,measurement,setting,value
"CNC1(c2ccccc2Cl)CCCCC1=O (racemic) [ketamine, (RS)-2-(2-chlorophenyl)-2-(methylamino)cyclohexanone]",onset of effect on anorexic thoughts (AN voice) after first infusion,"chronic anorexia nervosa; 40-minute IV infusion 0.75 mg/kg (42.68 mg) after 3 months on ketogenic diet, moderate ketosis for 14 days","Within one hour, they felt the AN voice was weakening"
same,anorexia symptoms by the end of treatment,"chronic anorexia nervosa; four infusions over 15 days (0.75, 1.0, 1.1, 1.2 mg/kg) on ketogenic diet",they no longer felt anorexic any more
same,compulsive exercise by the end of treatment,chronic anorexia nervosa; four infusions over 15 days on ketogenic diet,They could exercise and stop exercising at their own wish
same,BMI,chronic anorexia nervosa; throughout the treatment (duration 15 days) and months after,~20.8
same,"patients experiencing restlessness, headaches, or significant heart rate increases",[1],7-13%
same,adverse events,[2],no adverse events
same,"side effects (headache, nausea, sedation, revival of distant memories)",[3],no longer occurred after the first infusion or were no longer seen as unpleasant
same,duration of dissociative symptoms,patients,less than 60 minutes
same,patients with a side effect that led to discontinuation of treatment,[4],0.7%
same,residual effects,healthy volunteers,does not result in any residual effects
"N[C@@]1(c2ccccc2Cl)CCC[C@@H](O)C1=O [(2R,6R)-HNK]",hypnotic effect,[5],non-hypnotic
same,role in antidepressant effects of ketamine,[5],essential for the antidepressant effects of ketamine
CN[C@@]1(c2ccccc2Cl)CCCCC1=O [(R)-ketamine],antidepressant effects and psychotomimetic side effects,[6],rapid-onset and sustained antidepressant effects without psychotomimetic side effects
"C[C@@H]([C@@H](O)c1ccc(O)cc1)N1CCC(O)(c2ccccc2)CC1 [CP-101,606]",protection,[7],protective
Cc1ncc2n1-c1ccc(Cl)cc1C(c1ccccc1F)=NC2 [Midazolam],half-life (t½),[8],2.5 h
C[C@@H](CN1CCC(Cc2ccccc2)CC1)[C@@H](O)c1ccc(O)cc1 [Ro 25-6981],antidepressant actions,[9],rapid antidepressant actions
"Thr-Pro-Pro-Thr-NH2 (TPPT-NH2) [Rapastinel, amidated tetrapeptide, NMDA receptor glycine site partial agonist]",oral activity,[10]; po,not active orally
same,blood brain barrier crossing,[10],rapidly crosses the blood brain barrier
